The values that follow come from patent US11851459B2, “Methods and uses of modulators of anaphase promoting complex (APC) activity for treating cancer” (University of Saskatchewan, priority 2018, dated 2023).

In test [1] the test system is apc5 temperature sensitive mutant and/or apc10Δ mutant. In words: Viability of APC mutant yeast (spot dilution). Format: cell-based. The source says: Suitable APC activators also include APC activators that increase the cell viability of an wild-type and/or an APC mutant cell by at least 10%, at least 20%, at least 30%, at least 40%, at least 50%, at least 60%, at least 70% or at least 80% compared to a cell with wild-type APC function. […] Examples of yeast cells with defective APC function include apc5 and apc10 mutants. An example of an apc5 mutant is the apc5 temperature sensitive mutant described herein. An example of an apc10 mutant is the apc10 deletion mutant described herein. Viability of a yeast mutant can be measured for example, by the spot dilution assays described herein or any other method known in the art.
The reverse genetic screen utilized a yeast 2-hybrid (Y2H) protocol that selected for peptides that bound to the APC subunits Apc5 or Apc10 (see FIG. 8 for APC structure), to assess whether peptide-binding might modify APC function. Peptides that bound APC subunits were then assayed for those that suppressed APC mutant defects.
Over 100 peptides that bound either Apc5 or Apc10 were recovered from millions screened. Six peptides that reproducibly interacted with the Apc5 or Apc10 bait construct in Y2H assays were examined further. Vectors expressing these 6 peptides were transformed into WT or APC mutant cells and assessed for ts growth.

For test [2], the system named is apc5^CA cells. As to the kind of experiment: Yeast replicative lifespan (RLS) assay. Format: cell-based. The method, then: A. apc5^CA (temperature sensitive allele) cells were transformed with C43-4 or an empty vector. Cells grown overnight in 2% Glu were struck onto 2% Glucose plates and used for the yeast RLS assay. From the top left hand corner of the figures, top line is WT +empty vector, middle line is apc5^CA+C43-4 peptide and bottom line is apc5^CA+empty vector. B. WT cells transformed with C43-4, C2-4B or an empty vector were grown to stationary phase in 2% Glu media, then after 2 days spot diluted onto 2% Glu or 2% Gal to induce expression of the peptides.

In test [3] the test system is APC (substrate Cyclin B). In words: Cyclin B protein levels in MCF7 cells. It is filed as cell-based, human. The settings on record: MCF7, 48 hrs; 1 mM metformin or transient transfection of peptide plasmid. The method, then:
MCF7 breast cancer cells were treated with 1 mM metformin or transiently transfected with an APC activating peptide (C43-4) for 48 hrs, then harvested for assessment of Cyclin B protein levels. Cyclin B is an APC target.
A mouse model for growing patient derived breast tumor cells obtained from a patient with triple negative breast cancer was developed. This patient had developed resistance to Doxorubicin. Tumors growing in these mice grow rapidly. Mice growing the patient derived xenografted (PDX) tumor were injected with various amounts of M2I-1. […] Since the APC was activated in the canines tested in this study following treatment with metformin, it was asked if metformin can directly activate the APC. Reduced APC substrate Cyclin B levels following metformin treatment in human MCF7 breast cancer cells was observed, similar to that observed when MDF7 cells express the C43-4 plasmid (see below for more on this plasmid) (FIG. 21).

Test [4] relates to MDA-MB-231 cells. As to the kind of experiment: DOX sensitivity, MTT viability assay, MDA-MB-231 cells expressing peptides. The following applies: for sensitivity to DOX treatment: DOX 1 uM 48 hrs. Format: cell-based, human. The method, then:
A. Transient transfection of the C43-4 peptide plasmid into human triple negative MDA-MB-231 breast cancer cells followed by Western blot analysis of lysates against Cyclin B, Securin and Cdc20 showing enhanced protein loss. B. Cells in A were treated with DOX (1 uM) for 48 hrs with cell viability measured using an MTT assay kit. The experiment was done in triplicate with standard error of the means shown.
A. Stable integration of C43-4 in MDA-MB-231 cells was established by selection of transfected cells on Geneticin for 7 days. Westerns against APC substrates show APC activation. B. Cells in A were treated with DOX (1 uM) for 48 hrs with cell viability measured using an MTT assay kit. Mean and SEM of 3 biological repeats.
A. TNBC MDA-MB-231 cells stably expressing APC binding peptides activate the APC. Cells were grown to confluence and then used to prepare protein lysates. The lysates were used to measure levels of the APC substrate CDC20, which will be reduced if the APC is activated. Cells stably expressing the pcDNA empty vector were used as a control. B. In a similar experiment, MDA-MB-231 cells stably expressing the APC binding peptides shown, or the empty vector control, were used to measure protein levels of the APC substrate HURP using Westerns. C. Triplicate blots as in B were scanned, normalized to tubulin and plotted. Error of the mean is shown. Significant changes are indicated. D. MDA-MB-231 cells stably expressing the empty pcDNA vector, or the C43-4 and C13-3 APC binding peptides, were treated with 1 μM Doxorubicin for 24 hrs. Cell viability was measured using an MTT viability assay.
In FIG. 26B, MDA-MB-231 cells were also stably transfected with the peptides C1-8, C2-4B, C3-1B, and C9-5. Levels of the APC substrate HURP were measured in lysates prepared from these cells. […] The empty vector pcDNA was also stably expressed in 231 cells and used as a control.

For test [5], the system named is MDA-MB-231 cells. In words: Scratch assay, migration of MDA-MB-231 cells. Format: cell-based, human. The procedure:
A. An equal number of MDA-MB-231 TNBC cells were grown to confluence in 6 well plates. The cells were then treated with increasing doses of metformin (0, 1, 5 and 10 mM) and a scratch was made in the cell lawn creating a void. At the times shown the number of cell that migrated into the void were counted. The experiment was repeated twice. B. WT MDA-MB-231 cells and cells stably expressing the C43-4 plasmid were grown as in A. Control cells were left untreated, with other cells treated with the DMSO control, 1 uM DOX or 2.5 uM M2I-1. A void was created in the cell lawn and the number of cells that entered the void were scored as above. This experiment was repeated 4 times. This experiment was also repeated 4 times in an independently generated stable C43-4 cell line with similar results. The error of the mean is shown. C. WT and MDA-MB-231 cells stably expressing the C2-4B peptide plasmid were used for the scratch assay as described above. D. WT and MDA-MB-231 cells stably expressing the C13-3 peptide plasmid were used for the scratch assay as described above. The experiments in C and D were only performed once.
Assays using WT and C43-4 expressing cells have been done 4 times. Assays using C13-3 and C2-4B cells have only been conducted once. Metformin treated cells have been used twice. For scratch assays, a scratch is made down a confluent plate of cells, leaving a void. The number of cells that migrate back into the void over time is determined.

Turning to NGSSHNDLRVRRLTLISRLC [C43-4], the “viability of an APC mutant” value in test [1] is listed as “increases the viability”. In addition, in test [2], the replicative lifespan entry is on record as “increased replicative lifespan”. In addition, the “APC substrate Cyclin B protein levels” value in test [3] is “reduces protein levels”. In addition, in test [4] (stably transfected, 1 uM Doxorubicin 24 hours), the “synergy with Doxorubicin (killing effect)” value is “synergize”. Also, the “sensitivity to DOX treatment” value in test [4] (stably transfected) and in test [4] (transiently transfected) was “resensitized” in each case. In addition, the “metastatic potential / in vitro migration” value in test [5] is “inhibit the in vitro migration”.
Turning to RMPQWWQWMWV [C2-4B], the “viability of an APC mutant” value in test [1] is “increases the viability of an APC mutant”. In addition, the “metastatic potential / in vitro migration” value in test [5] is given as “inhibit the in vitro migration”.
